Measurements published in article PMC12171319, “3‐Oxabicyclo[3.1.1]heptane as an Isostere of meta‐Benzene” (Angewandte Chemie (International Ed. in English), 2025).
Converted amounts (≈) assume the structure as drawn. Like-named read-outs stand apart in the source and are kept apart here.

Columns and labels:
[1] = Kinetic solubility in phosphate-buffered saline, pH 7.4; assay type: physicochemical; settings: 25 °C, pH 7.4, aqueous buffer, kinetic from dmso stock; for solubility at 2 h: PBS solubility
Procedure: page 239: 7. […] The data […] analysis software. […] page 240: Methods Kinetic solubility assay was performed according to Enamine's aqueous solubility SOP. Briefly, […] theoretical concentration of 400 μM in duplicates in phosphate-buffered saline pH 7.4 […] The experimental compound dilutions in PBS were further allowed to equilibrate at 25 °C on a thermostatic shaker for two hours and then filtered through HTS filter plates using a vacuum manifold. The filtrates of test […] prepared to theoretical concentrations of 0 μM (blank), 10 μM, 25 μM, 50 μM, 100 μM, and 200 […] Ondansetron was used as a reference compound to control proper assay performance. 200 μL of each sample was transferred to a 96-well plate and measured in the 230-550 nm range with a 5 nm step. The concentrations of compounds in PBS filtrate are calculated using a dedicated Microsoft Excel calculation script. Proper absorbance wavelengths for calculations are selected for each compound manually based on absorbance maximums (absolute absorbance unit values for the minimum and maximum concentration points within the 0 - 3 OD range). Each final dataset is visually evaluated by the operator, and goodness of fit (R2) is calculated for each calibration curve. […] close to the upper limit of the range may have higher actual solubility (e.g. 5'-deoxy-5- fluorouridine). The calibration curves are shown in Appendix*. […] Compound ID PBS solubility, pH 7.4, μM SE […] Ondansetron 128 126 127** 1.1 EN300-7362818 6 6 6 0.2 (Sonidegib) BCHep-Sonidegib (50) 5 3 4 0.9 Table S3. 2nd batch PBS solubility, pH 7.4, μM Compound ID SE […] Ondansetron 124 124 124** 0.1 EN300-45381956 (51) 34 34 34 0.2 *Goodness of fit (R2) in all titration curves as well as the variations between repeat measurements indicates a high quality of the experimental data in the current batch of test articles. **Ondansetron solubility data are consistent with those previously obtained. […]

[2] = Metabolic stability in human liver microsomes; assay type: in vitro ADME; settings: both sexes, human; for microsomal CLint at 2 μM: read-out: CLint: experimental metabolic stability in human liver microsomes; for remaining at 7 min, 2 µM / remaining at […], 2 µM / remaining at 25 min, 2 µM / remaining at 40 min, 2 µM: pH 7.4, Table S7, 2nd batch; for remaining at […], 2 µM: 15 min
Procedure: 9. Metabolic Stability in Human Liver Microsomes
The objective of this study was to determine the metabolic stability of 3 test articles (EN300- […]
in human liver microsomes at five-time points over 40 minutes using HPLC-MS. Metabolic stability is defined as the percentage of parent compound lost over time in the presence of a metabolically active test system.
Potassium phosphate monobasic (Bio-Basic, Canada; Lot #N9016010)
Potassium phosphate dibasic (Bio-Basic, Canada; Lot #MA7100050) […]
Glucose-6-phosphate dehydrogenase from baker's yeast, type XV (Sigma-Aldrich, USA; Cat […]
D-Glucose-6-phosphate sodium salt (Sigma-Aldrich, USA; Cat #G7879-1G)
NADPH tetrasodium salt (BLD Pharmatech Ltd., Cat #BD116582)
Verapamil hydrochloride (Sigma Aldrich, USA; Cat #V4629)
Niclosamide (Sigma-Aldrich, USA; Cat #N3510)
DMSO stock solutions of the tested compounds 20 mM
Gradient HPLC system (Shimadzu)
Triple quadrupole mass-detector API 3000 with TurboIonSpray Ion Source (AB Sciex, Canada) […]
Multichannel pipettors 1-30 µL, 2-125 µL, 30-850 µL (Thermo Scientific) […]
All measurements were performed using the Shimadzu HPLC system including vacuum degasser, gradient pumps, reverse phase HPLC column, column oven, and autosampler. Mass spectrometric analysis was performed using an API 3000 mass spectrometer from Applied Biosystems/MDS Sciex (AB Sciex) with Turbo V ion source and TurboIonspray interface. The […]
and system control were performed using Analyst 1.6.3 software from AB Sciex.
Microsomal incubations were carried out in 96-well plates in 5 aliquots of 30 μL each (one for each time point). Liver microsomal incubation medium comprised of phosphate buffer (100 mM, pH 7.4), MgCl2 (3.3 mM), NADPН (3 mM), glucose-6-phosphate (5.3 mM), glucose-6-phosphate dehydrogenase (0.67 units/mL) with 0.42 mg of liver microsomal protein per mL. In the control reactions, the NADPH-cofactor system was substituted with phosphate buffer. Test compounds […]
100 rpm. Five-time points over 40 minutes were analyzed. The reactions were stopped by adding 5 volumes of acetonitrile with internal standard to incubation aliquots, followed by protein sedimentation by centrifuging at 5500 rpm for 5 min. Each reaction was performed in duplicates.
Supernatants were analyzed using the HPLC system coupled with a tandem mass spectrometer.
The elimination constant (kel), half-life (t1/2), and intrinsic clearance (Clint) were determined in a plot of […] versus time, using linear regression analysis:1
1 In order to indicate the quality of the linear regression analysis, the R2 (determination coefficient) values are provided.
In some cases, the last time point is excluded from the calculations to ensure acceptable logarithmic linearity of decay.

[3] = Table S5, 2nd batch
[4] = physchem
[5] = in vitro; settings: human; for efflux ratio at 90 min, 10 µM: Caco-2, pH 7.4; for Papp A→B at 90 min, 10 µM: Caco-2, pH 7.4, Papp (AB); for Papp B→A at 90 min, 10 µM: Caco-2, pH 7.4, Papp (BA)
[6] = test system: Hedgehog signaling pathway; settings: Mus musculus
[7] = human liver microsomes, pH 7.4, human liver microsomes, read-out: t1/2: experimental half-time of a metabolic decomposition
[8] = liver microsomes, 2 µM, read-out: % Remaining, Mean of 2
[9] = pH 7.4, LogD, pH 7.4 (overall of 3 incubations)
[10] = pH 7.4, logD (7.4): experimental distribution coefficient in n-octanol/phosphate-buffered saline, pH 7.4
[11] = Mean, 10 µM, 90 min, no verapamil
[12] = replicate 1, 10 µM, 90 min, no verapamil
[13] = replicate 2, 10 µM, 90 min, no verapamil
[14] = NIH3T3, read-out: pIC50, Hedgehog signaling pathway, experiment with EN300-45381956 (51) (converted), calculated from IC50

Cc1c(C(=O)Nc2ccc(N3C[C@@H](C)O[C@@H](C)C3)nc2)cccc1-c1ccc(OC(F)(F)F)cc1 [Sonidegib]
solubility kinetic at 2 h [1]: 6 µM (≈ 2.91 µg/mL) | solubility at 2 h ([1]; pH 7.4, Incubation 1): 6 µM (≈ 2.91 µg/mL) | solubility at 2 h ([1]; pH 7.4, Incubation 2): 6 µM (≈ 2.91 µg/mL) | solubility at 2 h ([1]; pH 7.4, Mean): 6 µM (≈ 2.91 µg/mL) | half-life at 2 μM [2, 7]: 1.73 h | microsomal CLint at 2 μM ([2]; human liver microsomes, pH 7.4): 16 µL/min/mg | remaining at 7 min, 2 µM ([2]; liver microsomes, 2 µM): 100% | remaining at […], 2 µM ([2]; liver microsomes, 2 µM): 94% | remaining at 25 min, 2 µM ([2]; liver microsomes, 2 µM): 89% | remaining at 40 min, 2 µM [2, 8]: 77% | remaining at 40 min, 2 µM ([2]; liver microsomes, no NADPH, read-out: % Remaining without cofactor, Mean of 2): 103% | k el at 2 µM ([2]; liver microsomes, pH 7.4, Table S7, 2nd batch): 0.000117 s⁻¹ | half-life at 2 μM ([2]; liver microsomes, pH 7.4, Table S7, 2nd batch, read-out: t1/2): 1.73 h | D ([3]; incubation 1): 5.61E+04 | D ([3]; incubation 2): 5.60E+04 | D ([3]; incubation 3): 6.79E+04 | logD at 1 h ([4]; pH 7.4, LogD, pH 7.4): ≥ 4.5 | logD at 1 h [4, 9]: ≥ 4.5 | logD at 1 h [4, 10]: ≥ 4 | efflux ratio at 90 min, 10 µM [5]: 0.3 | Papp A→B at 90 min, 10 µM [5, 11]: 2.8 ×10⁻⁶ cm/s | Papp A→B at 90 min, 10 µM [5, 12]: 2.9 ×10⁻⁶ cm/s | Papp A→B at 90 min, 10 µM [5, 13]: 2.7 ×10⁻⁶ cm/s | Papp B→A at 90 min, 10 µM [5, 11]: 0.9 ×10⁻⁶ cm/s | Papp B→A at 90 min, 10 µM [5, 12]: 1 ×10⁻⁶ cm/s | Papp B→A at 90 min, 10 µM [5, 13]: 0.9 ×10⁻⁶ cm/s | recovery at 90 min, 10 µM ([5]; Caco-2, pH 7.4, Recovery A-B in presence of Verapamil, Mean, with verapamil): 65% | recovery at 90 min, 10 µM ([5]; Caco-2, pH 7.4, Recovery A-B in presence of Verapamil, replicate 1, with verapamil): 67% | recovery at 90 min, 10 µM ([5]; Caco-2, pH 7.4, Recovery A-B in presence of Verapamil, replicate 2, with verapamil): 63% | recovery at 90 min, 10 µM ([5]; Caco-2, pH 7.4, Recovery A-B, Mean, no verapamil): 36% | recovery at 90 min, 10 µM ([5]; Caco-2, pH 7.4, Recovery A-B, replicate 1, no verapamil): 35% | recovery at 90 min, 10 µM ([5]; Caco-2, pH 7.4, Recovery A-B, replicate 2, no verapamil): 37% | recovery at 90 min, 10 µM ([5]; Caco-2, pH 7.4, Recovery B-A in presence of Verapamil, Mean, with verapamil): 61% | recovery at 90 min, 10 µM ([5]; Caco-2, pH 7.4, Recovery B-A in presence of Verapamil, replicate 1, with verapamil): 63% | recovery at 90 min, 10 µM ([5]; Caco-2, pH 7.4, Recovery B-A in presence of Verapamil, replicate 2, with verapamil): 60% | recovery at 90 min, 10 µM ([5]; Caco-2, pH 7.4, Recovery B-A, Mean, no verapamil): 45% | recovery at 90 min, 10 µM ([5]; Caco-2, pH 7.4, Recovery B-A, replicate 1, no verapamil): 46% | recovery at 90 min, 10 µM ([5]; Caco-2, pH 7.4, Recovery B-A, replicate 2, no verapamil): 43% | IC50 ([6]; NIH3T3, read-out: IC50, Hedgehog signaling pathway, mean ± SD from 2 independent experiments, experiment with BCH-Sonidegib (50)): 6.4 ± 0.5 nM | IC50 ([6]; NIH3T3, read-out: IC50, Hedgehog signaling pathway, reference compound in the experiment with EN300-45381956 (51)): 1.46 nM | IC50 [6, 14]: 1.58 nM

CC1CN(c2ccc(NC(=O)C34COCC(c5ccc(OC(F)(F)F)cc5)(C3)C4)cn2)CC(C)O1 (stereo not drawn) [Compound 51]
solubility kinetic at 2 h [1]: 34 µM (≈ 16.7 µg/mL) | solubility at 2 h ([1]; pH 7.4, Incubation 1): 34 µM (≈ 16.7 µg/mL) | solubility at 2 h ([1]; pH 7.4, Incubation 2): 34 µM (≈ 16.7 µg/mL) | solubility at 2 h ([1]; pH 7.4, Mean): 34 µM (≈ 16.7 µg/mL) | remaining at 40 min, 2 µM ([2]; human liver microsomes, no NADPH, read-out: % Remaining without cofactor, Mean of 2): 104% | half-life at 2 μM [2, 7]: 1.02 h | k el at 2 µM ([2]; human liver microsomes, pH 7.4, Table S7, 2nd batch): 0.000183 s⁻¹ | half-life at 2 μM ([2]; human liver microsomes, pH 7.4, Table S7, 2nd batch, read-out: t1/2): 1.01 h | microsomal CLint at 2 μM ([2]; human liver microsomes, pH 7.4): 28 µL/min/mg | remaining at 7 min, 2 µM ([2]; liver microsomes, 2 µM): 96% | remaining at […], 2 µM ([2]; liver microsomes, 2 µM): 89% | remaining at 25 min, 2 µM ([2]; liver microsomes, 2 µM): 77% | remaining at 40 min, 2 µM [2, 8]: 64% | D ([3]; incubation 1): 7.16E+04 | D ([3]; incubation 2): 6.24E+04 | D ([3]; incubation 3): 6.33E+04 | logD at 1 h ([4]; pH 7.4, LogD, pH 7.4): ≥ 4.5 | logD at 1 h [4, 9]: ≥ 4.5 | logD at 1 h [4, 10]: ≥ 4 | efflux ratio at 90 min, 10 µM [5]: 1.5 | Papp A→B at 90 min, 10 µM ([5]; Mean): 5.4 ×10⁻⁶ cm/s | Papp A→B at 90 min, 10 µM ([5]; replicate 1): 6.3 ×10⁻⁶ cm/s | Papp A→B at 90 min, 10 µM ([5]; replicate 2): 4.5 ×10⁻⁶ cm/s | Papp B→A at 90 min, 10 µM ([5]; Mean): 8 ×10⁻⁶ cm/s | Papp B→A at 90 min, 10 µM ([5]; replicate 1): 7.3 ×10⁻⁶ cm/s | Papp B→A at 90 min, 10 µM ([5]; replicate 2): 8.7 ×10⁻⁶ cm/s | recovery at 90 min, 10 µM ([5]; Caco-2, pH 7.4, Recovery A-B in presence of Verapamil, Mean): 51% | recovery at 90 min, 10 µM ([5]; Caco-2, pH 7.4, Recovery A-B in presence of Verapamil, replicate 1): 53% | recovery at 90 min, 10 µM ([5]; Caco-2, pH 7.4, Recovery A-B in presence of Verapamil, replicate 2): 49% | recovery at 90 min, 10 µM ([5]; Caco-2, pH 7.4, Recovery A-B, Mean): 43% | recovery at 90 min, 10 µM ([5]; Caco-2, pH 7.4, Recovery A-B, replicate 1): 44% | recovery at 90 min, 10 µM ([5]; Caco-2, pH 7.4, Recovery A-B, replicate 2): 43% | recovery at 90 min, 10 µM ([5]; Caco-2, pH 7.4, Recovery B-A in presence of Verapamil, Mean): 77% | recovery at 90 min, 10 µM ([5]; Caco-2, pH 7.4, Recovery B-A in presence of Verapamil, replicate 1): 69% | recovery at 90 min, 10 µM ([5]; Caco-2, pH 7.4, Recovery B-A in presence of Verapamil, replicate 2): 86% | recovery at 90 min, 10 µM ([5]; Caco-2, pH 7.4, Recovery B-A, Mean): 70% | recovery at 90 min, 10 µM ([5]; Caco-2, pH 7.4, Recovery B-A, replicate 1): 71% | recovery at 90 min, 10 µM ([5]; Caco-2, pH 7.4, Recovery B-A, replicate 2): 69% | IC50 ([6]; NIH3T3, read-out: IC50 (HH signal): inhibition of the Hedgehog signaling pathway, Gli reporter NIH3T3 cell line): 96 nM | IC50 [6, 14]: 100 nM
